Source: patent US9855265B2, “Methods for treating cancer with TrkA receptor tyrosine kinase antagonists” (VM Oncology LLC, priority 2014, dated 2018)

What was measured:
ABL1 = ABL1 (Homo sapiens, UniProt P00519); test: radiometric kinase assay, other kinases: ABL1; type: biochemical; details: duplicate
Experimental: (§1) Compound inhibition in a radiometric based mixed micelle assay: In a final reaction volume of 25 μL, TrkA (h) ([…]) is incubated with the kinase reaction buffer (20 mM HEPES (pH 7.5), 10 mM MgCl2, 1 mM EGTA, 0.02% Brij 35, 0.02 mg/ml BSA, 0.1 mM Na3VO4, 2 mM DTT, 1% DMSO), 0.2 mg/ml substrate PolyEY(4:1) and […], and [^33P-ATP](specific activity approx. 500 cpm/pmol, concentration as required). The reaction is initiated by the addition of the MgATP mix. After incubation for at least 40 minutes at room temperature, the reaction is stopped by the addition of 5 μL of a 3% phosphoric acid solution. 10 μL of the reaction is then spotted onto a P30 filtermat and washed three times for 5 minutes in 75 mM phosphoric acid and once in methanol prior to drying and scintillation counting. TrkA: Recombinant Human Cytoplasmic Domain (amino acids 441-796), Histidine-tagged, expressed in insect cells. Activated in vitro via auto-phosphorylation. Mw=42.8 kDa. Substrates for kinases: poly(EY) for TRKA; poly(EY)(4:1) with 2 mM MnCl2, average Mw=16 kDa Standard conditions (unless otherwise specified): 30 nM TRKA, 0.2 mg/ml poly(EY)+2 mM MnCl2, and 10 μM ([γ-^33P]) ATP. Using the similar assay condition with other kinases of recombinant human cytoplasmic domain, the activities of other kinases could be also measured.

CDK2/cyclinA = CDK2/cyclinA (Homo sapiens, UniProt P24941); test: radiometric kinase assay, other kinases: CDK2/cyclinA; type: biochemical; details: duplicate
Experimental: as §1

FGFR1 = target: T1, FGFR1 (Homo sapiens, UniProt P11362); test: radiometric kinase assay, other kinases: FGFR1; type: biochemical; details: duplicate
T1 construct: other kinases of recombinant human cytoplasmic domain
T1 sequence (P11362 398-822 limits assumed): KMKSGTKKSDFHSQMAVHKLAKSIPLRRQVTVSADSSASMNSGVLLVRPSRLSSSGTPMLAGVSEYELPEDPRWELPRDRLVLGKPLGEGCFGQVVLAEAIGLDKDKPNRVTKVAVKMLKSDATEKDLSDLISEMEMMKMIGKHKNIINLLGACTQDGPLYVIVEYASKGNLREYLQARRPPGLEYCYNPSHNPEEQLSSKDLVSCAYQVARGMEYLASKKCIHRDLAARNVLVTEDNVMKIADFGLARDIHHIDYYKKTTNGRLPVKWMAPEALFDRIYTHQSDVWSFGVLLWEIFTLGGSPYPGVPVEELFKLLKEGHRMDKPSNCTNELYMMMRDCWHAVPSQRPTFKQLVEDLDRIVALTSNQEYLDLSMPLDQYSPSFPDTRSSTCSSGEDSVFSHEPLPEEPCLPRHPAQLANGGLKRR
Experimental: as §1

FLT3 (CD) = target: T2, FLT3 (CD) (Homo sapiens, UniProt P36888); test: radiometric kinase assay, other kinases: FLT3 (CD); type: biochemical; details: duplicate
T2 construct: other kinases of recombinant human cytoplasmic domain
T2 sequence (P36888 564-993 limits assumed): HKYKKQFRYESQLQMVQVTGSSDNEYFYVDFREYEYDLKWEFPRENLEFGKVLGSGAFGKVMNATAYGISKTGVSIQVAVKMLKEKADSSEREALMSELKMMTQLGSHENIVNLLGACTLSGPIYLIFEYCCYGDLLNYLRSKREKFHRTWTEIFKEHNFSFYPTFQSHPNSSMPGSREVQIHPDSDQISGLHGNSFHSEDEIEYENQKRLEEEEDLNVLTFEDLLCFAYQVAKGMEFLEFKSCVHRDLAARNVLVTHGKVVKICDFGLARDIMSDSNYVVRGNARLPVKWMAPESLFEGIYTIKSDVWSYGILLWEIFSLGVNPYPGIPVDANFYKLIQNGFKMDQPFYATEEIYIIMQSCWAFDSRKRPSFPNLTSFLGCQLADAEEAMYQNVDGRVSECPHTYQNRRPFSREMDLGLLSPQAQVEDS
Experimental: as §1

FMS = target: T3, FMS (Homo sapiens, UniProt P07333); test: radiometric kinase assay, other kinases: FMS; type: biochemical; details: duplicate
T3 construct: other kinases of recombinant human cytoplasmic domain
T3 sequence (P07333 539-972 limits assumed): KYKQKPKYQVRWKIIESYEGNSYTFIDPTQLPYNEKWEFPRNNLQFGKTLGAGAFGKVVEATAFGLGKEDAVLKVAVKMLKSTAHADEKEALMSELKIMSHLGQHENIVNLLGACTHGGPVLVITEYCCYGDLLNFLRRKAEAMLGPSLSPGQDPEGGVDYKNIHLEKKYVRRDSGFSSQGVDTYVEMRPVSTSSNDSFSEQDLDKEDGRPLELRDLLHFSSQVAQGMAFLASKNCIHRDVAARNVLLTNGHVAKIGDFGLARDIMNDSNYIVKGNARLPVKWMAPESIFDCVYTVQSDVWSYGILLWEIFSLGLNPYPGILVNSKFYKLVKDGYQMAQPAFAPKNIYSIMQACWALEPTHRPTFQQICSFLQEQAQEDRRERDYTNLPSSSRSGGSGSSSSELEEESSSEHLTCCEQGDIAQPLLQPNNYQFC
Experimental: as §1

IR = target: T4, IR (Homo sapiens, UniProt P06213); test: radiometric kinase assay, other kinases: IR; type: biochemical; details: duplicate
T4 construct: other kinases of recombinant human cytoplasmic domain
T4 sequence (P06213 980-1382 limits assumed): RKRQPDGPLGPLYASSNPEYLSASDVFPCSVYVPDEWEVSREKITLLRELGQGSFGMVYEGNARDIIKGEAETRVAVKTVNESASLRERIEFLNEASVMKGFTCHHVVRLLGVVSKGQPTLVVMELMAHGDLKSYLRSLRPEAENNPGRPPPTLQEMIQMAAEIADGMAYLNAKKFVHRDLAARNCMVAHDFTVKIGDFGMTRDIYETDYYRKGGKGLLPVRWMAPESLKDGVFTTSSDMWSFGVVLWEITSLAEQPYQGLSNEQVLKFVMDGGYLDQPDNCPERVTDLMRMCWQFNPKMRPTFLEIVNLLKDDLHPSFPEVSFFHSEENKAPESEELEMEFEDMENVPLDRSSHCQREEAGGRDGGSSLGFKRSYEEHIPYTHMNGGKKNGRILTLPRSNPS
Experimental: as §1

JAK3 = JAK3 (Homo sapiens, UniProt P52333); test: radiometric kinase assay, other kinases: JAK3; type: biochemical; details: duplicate
Chain of JAK3 (P52333 whole entry): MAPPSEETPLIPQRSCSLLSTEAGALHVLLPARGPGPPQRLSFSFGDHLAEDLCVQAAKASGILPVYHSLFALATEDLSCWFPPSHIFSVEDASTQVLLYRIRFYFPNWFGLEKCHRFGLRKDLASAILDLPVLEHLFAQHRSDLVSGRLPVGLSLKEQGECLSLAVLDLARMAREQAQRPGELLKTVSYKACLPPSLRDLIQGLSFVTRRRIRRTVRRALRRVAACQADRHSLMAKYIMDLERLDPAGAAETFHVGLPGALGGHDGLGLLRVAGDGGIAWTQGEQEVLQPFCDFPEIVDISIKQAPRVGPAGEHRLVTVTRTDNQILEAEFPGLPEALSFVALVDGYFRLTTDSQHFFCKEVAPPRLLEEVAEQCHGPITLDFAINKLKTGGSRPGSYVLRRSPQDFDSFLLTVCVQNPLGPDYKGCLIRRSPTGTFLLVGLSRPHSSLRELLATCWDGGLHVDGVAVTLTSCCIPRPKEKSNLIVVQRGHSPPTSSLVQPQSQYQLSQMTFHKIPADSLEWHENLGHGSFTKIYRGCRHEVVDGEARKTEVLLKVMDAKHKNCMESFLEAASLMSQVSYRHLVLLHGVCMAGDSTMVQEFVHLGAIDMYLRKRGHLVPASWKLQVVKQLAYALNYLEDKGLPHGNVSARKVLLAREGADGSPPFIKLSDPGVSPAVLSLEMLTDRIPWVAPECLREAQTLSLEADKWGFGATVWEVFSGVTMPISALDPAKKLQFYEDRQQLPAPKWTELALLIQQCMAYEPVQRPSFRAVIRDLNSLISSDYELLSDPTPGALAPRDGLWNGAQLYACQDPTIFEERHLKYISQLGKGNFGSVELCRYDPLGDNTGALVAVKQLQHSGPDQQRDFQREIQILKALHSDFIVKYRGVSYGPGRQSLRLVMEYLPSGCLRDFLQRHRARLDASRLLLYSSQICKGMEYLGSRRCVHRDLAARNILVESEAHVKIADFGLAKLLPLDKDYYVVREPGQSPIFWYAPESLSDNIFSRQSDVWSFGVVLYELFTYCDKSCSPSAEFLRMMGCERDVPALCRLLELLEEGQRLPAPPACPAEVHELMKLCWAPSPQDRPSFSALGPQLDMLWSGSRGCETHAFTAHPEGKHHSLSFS
Experimental: as §1

JNK3 = JNK3 (Homo sapiens, UniProt P53779); test: radiometric kinase assay, other kinases: JNK3; type: biochemical; details: duplicate
Chain of JNK3 (P53779 whole entry): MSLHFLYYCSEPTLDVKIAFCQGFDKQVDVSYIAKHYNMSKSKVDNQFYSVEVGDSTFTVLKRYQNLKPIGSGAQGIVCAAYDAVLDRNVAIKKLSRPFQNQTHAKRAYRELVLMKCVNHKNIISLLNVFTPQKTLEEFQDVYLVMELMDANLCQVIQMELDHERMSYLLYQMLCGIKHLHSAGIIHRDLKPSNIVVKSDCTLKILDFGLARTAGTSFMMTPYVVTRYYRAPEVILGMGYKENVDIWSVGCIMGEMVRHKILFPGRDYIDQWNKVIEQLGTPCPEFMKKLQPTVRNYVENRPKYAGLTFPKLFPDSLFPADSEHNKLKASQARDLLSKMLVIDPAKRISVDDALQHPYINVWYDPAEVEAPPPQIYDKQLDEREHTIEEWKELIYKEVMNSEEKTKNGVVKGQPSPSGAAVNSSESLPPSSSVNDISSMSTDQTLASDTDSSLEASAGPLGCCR
Experimental: as §1

PDGFRa = target: T5, PDGFRa (Homo sapiens, UniProt P16234); test: radiometric kinase assay, other kinases: PDGFRa; type: biochemical; details: duplicate
T5 construct: other kinases of recombinant human cytoplasmic domain
T5 sequence (P16234 550-1089 limits assumed): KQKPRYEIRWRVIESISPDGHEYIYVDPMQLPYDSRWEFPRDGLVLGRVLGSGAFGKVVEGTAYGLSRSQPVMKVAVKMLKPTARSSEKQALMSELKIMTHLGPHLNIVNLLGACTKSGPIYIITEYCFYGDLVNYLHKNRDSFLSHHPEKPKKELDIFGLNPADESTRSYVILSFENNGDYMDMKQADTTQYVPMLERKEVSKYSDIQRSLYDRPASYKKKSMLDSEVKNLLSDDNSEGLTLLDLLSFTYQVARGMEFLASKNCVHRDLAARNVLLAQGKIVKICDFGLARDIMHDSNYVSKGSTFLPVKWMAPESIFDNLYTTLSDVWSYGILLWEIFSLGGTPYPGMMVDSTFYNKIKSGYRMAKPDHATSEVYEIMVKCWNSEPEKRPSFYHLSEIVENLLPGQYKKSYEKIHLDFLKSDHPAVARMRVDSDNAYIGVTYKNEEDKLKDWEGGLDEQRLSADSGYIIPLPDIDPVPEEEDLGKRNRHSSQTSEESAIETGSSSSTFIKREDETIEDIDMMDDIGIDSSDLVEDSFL
Experimental: as §1

PKA = PKA (Homo sapiens, UniProt P17612); test: radiometric kinase assay, other kinases: PKA; type: biochemical; details: duplicate
Experimental: as §1

PKCbetaI = PKCbetaI (Homo sapiens, UniProt P05771); test: radiometric kinase assay, other kinases: PKCbetaI; type: biochemical; details: duplicate
Chain of PKCbetaI (P05771 whole entry): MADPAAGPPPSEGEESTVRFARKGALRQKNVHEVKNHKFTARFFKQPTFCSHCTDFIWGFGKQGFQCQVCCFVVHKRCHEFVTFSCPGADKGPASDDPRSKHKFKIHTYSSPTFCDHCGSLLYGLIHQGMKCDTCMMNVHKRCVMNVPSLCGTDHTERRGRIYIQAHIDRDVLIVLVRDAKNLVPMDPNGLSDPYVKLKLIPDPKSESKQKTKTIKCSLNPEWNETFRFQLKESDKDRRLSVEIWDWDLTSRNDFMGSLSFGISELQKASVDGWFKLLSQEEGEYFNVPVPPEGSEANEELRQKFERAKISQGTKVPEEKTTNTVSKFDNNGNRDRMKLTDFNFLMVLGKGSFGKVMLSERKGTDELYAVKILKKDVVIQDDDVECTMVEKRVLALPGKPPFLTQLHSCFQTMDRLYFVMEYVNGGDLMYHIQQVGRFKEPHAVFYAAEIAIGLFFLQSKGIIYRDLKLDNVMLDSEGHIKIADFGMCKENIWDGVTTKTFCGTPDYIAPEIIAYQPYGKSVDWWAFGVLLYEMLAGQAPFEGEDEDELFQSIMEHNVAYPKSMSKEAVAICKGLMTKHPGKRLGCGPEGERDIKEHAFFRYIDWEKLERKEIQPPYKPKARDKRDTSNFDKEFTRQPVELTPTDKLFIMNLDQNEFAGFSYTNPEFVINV
Experimental: as §1

PKCdelta = PKCdelta (Homo sapiens, UniProt Q05655); test: radiometric kinase assay, other kinases: PKCdelta; type: biochemical; details: duplicate
Experimental: as §1

PKCiota = PKCiota (Homo sapiens, UniProt P41743); test: radiometric kinase assay, other kinases: PKCiota; type: biochemical; details: duplicate
Experimental: as §1

PKCtheta = PKCtheta (Homo sapiens, UniProt Q04759); test: radiometric kinase assay, other kinases: PKCtheta; type: biochemical; details: duplicate
Experimental: as §1

PKCzeta = PKCzeta (Homo sapiens, UniProt Q05513); test: radiometric kinase assay, other kinases: PKCzeta; type: biochemical; details: duplicate
Experimental: as §1

RAF1 = RAF1 (Homo sapiens, UniProt P04049); test: radiometric kinase assay, other kinases: RAF1; type: biochemical; details: duplicate
Experimental: as §1

RET = target: T6, RET (Homo sapiens, UniProt P07949); test: radiometric kinase assay, other kinases: RET; type: biochemical; details: duplicate
T6 construct: other kinases of recombinant human cytoplasmic domain
T6 sequence (P07949 658-1114 limits assumed): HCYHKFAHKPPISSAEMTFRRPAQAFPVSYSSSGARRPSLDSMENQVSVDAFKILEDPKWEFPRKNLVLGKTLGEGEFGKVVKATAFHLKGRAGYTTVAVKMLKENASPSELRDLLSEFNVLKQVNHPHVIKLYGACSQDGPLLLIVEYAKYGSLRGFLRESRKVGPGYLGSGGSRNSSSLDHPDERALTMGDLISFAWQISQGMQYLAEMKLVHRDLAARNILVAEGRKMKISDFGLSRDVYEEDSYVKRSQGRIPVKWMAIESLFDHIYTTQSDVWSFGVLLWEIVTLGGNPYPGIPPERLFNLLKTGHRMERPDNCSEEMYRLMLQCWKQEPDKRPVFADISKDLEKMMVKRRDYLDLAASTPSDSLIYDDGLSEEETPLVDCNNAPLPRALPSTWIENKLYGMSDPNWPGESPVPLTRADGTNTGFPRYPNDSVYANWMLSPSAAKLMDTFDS
Experimental: as §1

[1] = system: carrageenan-induced pain in rats; test: Carrageenan Pain Model; type: in vivo, Sprague-Dawley rats; details: carrageenan rat model, 150 mg/kg oral dose, compared to indomethacin
Experimental: Carrageenan Pain Model The carrageenan model is a fast, reliable model used to assess the ability of analgesics to block inflammatory pain. The analgesic effects of test article combinations on pain generation are assayed using the carrageenan-induced pain model in rats. Adult male Sprague-Dawley rats are administered study drugs orally (vehicle, compounds of present disclosure) once daily for 2 days (day −2 and day −1) and 30 minutes prior to the carrageenan injection on day 0 (time=0). For the carrageenan injection, animals are lightly anesthetized and 0.1 ml of 2% carrageenan is injected into the plantar surface of the right hind paw. The positive control indomethacin (30 mg/kg, p.o.) is administered orally immediately before the carrageenan injection. Paw volumes (right and left) are measured using a Plethysmometer before drug administration on day −2 and serve as a baseline measurement. The paw volumes are measured again two hours post carrageenan injection. The degree of mechanical allodynia is measured by a blinded observer using Von Frey filaments applied to the plantar surface of the hind paws in an increasing numerical order. Each filament increases the force applied on the paw. The filaments are applied until animal paw withdrawal is achieved. […] Results are expressed as mean change from baseline across five timepoints post carrageenan injection.

TrkB [2] = target: T7, TrkB (Homo sapiens, UniProt Q16620); test: live whole cell based functional assay, BDNF stimulated TrkB activation; design: expressed in transfected cells; details: triplicate
TrkB [3] = target: T7, TrkB; test: radiometric kinase assay, other kinases: TrkB; type: biochemical; design: other kinases of recombinant human cytoplasmic domain; details: duplicate
Experimental: as §1

[4] = system: PANC-1 subcutaneous human pancreatic cancer xenografts; test: PANC-1 Subcutaneous Human Pancreatic Cancer Xenograft Mouse Model
Experimental: Temperature: 22±3° C. Humidity: 50±20%. Light cycle: 12 hours light and 12 hours dark. Cages: Polycarbonate cages of 300 mm×180 mm×150 mm embedded with the soft wood material were used. The bedding was changed twice a week. Diet: Animals had free access to a certified commercial laboratory diet. Concentrations of contaminants in the diet are routinely analyzed by the manufacturers to ensure the contaminants are below their allowable maximum and thus would not affect the tumor growth.
Water: Animals had free access to sterile drinking water. Cage identification: The identification labels for each cage contained the following information: number of animals, sex, strain, date received, treatment, group number and the starting date of the treatment. Briefly, PANC-1 cell line was originally purchased from the ATCC (CRL-1469) and the PANC-1 primary cell line was derived from the PANC-1 subcutaneously xenograft tumors. The PANC-1 primary cells were maintained in vitro as monolayer culture in DMEM medium supplemented with 10% heat inactivated fetal bovine serum, 100 U/ml penicillin and 100 μg/ml streptomycin and L-glutamine (2 mM) at 37° C. in an atmosphere of 5% CO2 air. The cells growing in exponential phase were harvested and counted for tumor inoculation.
Tumor Cell Inoculation and Randomization. Each animal was inoculated subcutaneously on the right flank with the PANC-1 primary tumor cells (5×10^6/animal) in 0.1 mL of PBS. Tumor development was allowed undisrupted until mean tumor volume reached approximately 85 mm^3. Animals were then randomized into 6 groups, with each group consisting of 8 animals. The test articles were administered to the tumor-bearing animals according to predetermined regimens. […] At the time of routine monitoring, the animals were checked for any effects of tumor growth on normal behavior such as mobility, food and water consumption (by looking only), body weight (BW) gain/loss (BW was measured twice weekly), eye/hair matting and any other abnormal effect. Death and observed clinical signs were recorded on the basis of the numbers of animals within each subset.
Tumor Measurement and the Endpoints: The major endpoint was to evaluate if the tumor growth could be inhibited. Tumor measurement was conducted twice weekly with a caliper and the tumor volume (mm3) is estimated using the formula: TV=a×b^2/2, where a and b are long and short diameters of a tumor, respectively. The tumor sizes were then used for T/C value and TGI (tumor growth inhibition), which are indicators of anti-tumor effectiveness. The T/C value (in percent) is an indication of antitumor effect. T and C are the mean volumes of the treated and control groups, respectively, on a given day. BW change, expressed as %, is calculated using the following formula: BW change (%)=(BW_DayX/BW_Day0)×100, where BW_DayX is BW on a given day, and BW_Day0 was BW on Day 0 (tumor inoculation).
Tumor Sample Collection: Two tumor samples from Group 1, 2 and 3, respectively; six tumor samples from Group 4; five tumor samples from Group 5 and 6, respectively, were snap frozen in liquid nitrogen and kept at −80° C. Total 22 tumor samples were collected.
Statistical Analyses: A one-way ANOVA was performed to compare tumor volumes among groups. All data were analyzed using the SPSS 17.0 software; p<0.05 was considered statistically significant.

- IC50 (ABL1): > 10 µM
- IC50 (CDK2/cyclinA): > 10 µM
- IC50 (FGFR1): > 10 µM
- IC50 (FLT3 (CD)): > 10 µM
- IC50 (FMS): > 10 µM
- IC50 (IR): > 10 µM
- IC50 (JAK3): > 10 µM
- IC50 (JNK3): > 10 µM
- IC50 (PDGFRa): > 10 µM
- IC50 (PKA): > 10 µM
- IC50 (PKCbetaI): > 10 µM
- IC50 (PKCdelta): > 10 µM
- IC50 (PKCiota): > 10 µM
- IC50 (PKCtheta): > 10 µM
- IC50 (PKCzeta): > 10 µM
- IC50 (RAF1): > 10 µM
- IC50 (RET): > 10 µM
- IC50 (TrkB [2]): > 10 µM
- IC50 (TrkB [3]): > 10 µM
SMILES: Nc1c(N2CCN(C3CCCCC3)CC2)cc(Nc2ccc(C(=O)O)cc2)c2c1C(=O)c1ccccc1C2=O [Compound 12, 4-{[4-amino-3-(4-cyclohexylpiperazin-1-yl)-9,10-dioxo-9,10-dihydroanthracen-1-yl]amino}benzoic acid]
- relative analgesic effect [1]: about 85%
- TGI (%, D18) ([4]; D18, Compound-12 alone, dose not given): 34%
- Tumor volume (Mean ± SEM) ([4]; Day 7, Compound-12 alone, dose not given): 84 ± 4 mm^3
- Tumor volume (Mean ± SEM) ([4]; Day 11, Compound-12 alone, dose not given): 111 ± 5 mm^3
- Tumor volume (Mean ± SEM) ([4]; Day 14, Compound-12 alone, dose not given): 157 ± 15 mm^3
- Tumor volume (Mean ± SEM) ([4]; Day 18, Compound-12 alone, dose not given): 234 ± 8 mm^3
- Tumor volume (Mean ± SEM) ([4]; Day 19, Compound-12 alone, dose not given): 276 ± 27 mm^3
- anti-tumor efficacy in words ([4]; alone or in combination with gemcitabine): efficacious in reducing tumor growth
